# US11034672B1, “Tyrosine kinase inhibitor compositions, methods of making and methods of use” (Black Diamond Therapeutics, Inc., priority 2018, dated 2021)
# Assays:
# [1] = test system: covalently-activated EGFR variants; test: Covalent dimer formation, Western blot under non-reducing conditions; type: cell-based
# EGFR WT [2] = molecular target: T1, EGFR WT (Homo sapiens, UniProt P00533); test: Activity for inhibiting EGFR (Table A), EGFR WT; type: cell-based; settings: read-out: EGFR WT, potency code (IC50)
# T1 sequence (P00533 25-1210 N540K): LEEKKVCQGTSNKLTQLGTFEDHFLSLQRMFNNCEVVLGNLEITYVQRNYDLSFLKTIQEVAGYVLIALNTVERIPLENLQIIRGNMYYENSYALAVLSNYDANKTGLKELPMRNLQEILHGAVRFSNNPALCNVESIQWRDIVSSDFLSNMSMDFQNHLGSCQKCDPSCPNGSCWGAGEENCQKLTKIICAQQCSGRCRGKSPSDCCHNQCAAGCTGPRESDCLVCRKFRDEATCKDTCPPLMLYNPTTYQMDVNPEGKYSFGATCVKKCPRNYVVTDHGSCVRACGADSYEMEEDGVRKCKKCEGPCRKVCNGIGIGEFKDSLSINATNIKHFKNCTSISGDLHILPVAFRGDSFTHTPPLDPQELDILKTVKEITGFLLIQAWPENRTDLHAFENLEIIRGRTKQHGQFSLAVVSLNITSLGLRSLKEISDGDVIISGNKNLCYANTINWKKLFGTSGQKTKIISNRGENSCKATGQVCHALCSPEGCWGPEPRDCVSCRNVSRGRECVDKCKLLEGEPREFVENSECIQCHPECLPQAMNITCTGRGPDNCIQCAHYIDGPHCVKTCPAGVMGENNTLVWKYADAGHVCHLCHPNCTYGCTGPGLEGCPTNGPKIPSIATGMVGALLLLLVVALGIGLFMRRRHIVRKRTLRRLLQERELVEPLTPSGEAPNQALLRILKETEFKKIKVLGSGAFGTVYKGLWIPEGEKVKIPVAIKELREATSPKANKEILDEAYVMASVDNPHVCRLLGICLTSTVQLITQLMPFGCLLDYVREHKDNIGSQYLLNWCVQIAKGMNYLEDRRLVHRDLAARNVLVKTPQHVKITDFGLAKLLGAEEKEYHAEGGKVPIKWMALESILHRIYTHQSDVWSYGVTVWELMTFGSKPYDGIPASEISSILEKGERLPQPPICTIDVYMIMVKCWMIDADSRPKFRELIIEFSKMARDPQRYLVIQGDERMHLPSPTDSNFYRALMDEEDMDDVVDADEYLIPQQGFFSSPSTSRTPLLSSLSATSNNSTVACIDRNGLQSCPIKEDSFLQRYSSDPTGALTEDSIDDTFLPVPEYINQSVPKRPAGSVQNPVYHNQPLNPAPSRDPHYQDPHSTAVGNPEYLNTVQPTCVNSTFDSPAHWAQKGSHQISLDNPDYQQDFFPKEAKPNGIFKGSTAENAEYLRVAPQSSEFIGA
# EGFR V3 [3] = molecular target: T2, EGFR V3 (Homo sapiens, UniProt P00533, DELINS30-297G); test: Activity for inhibiting EGFR (Table A), EGFR V3 (EGFR-Viii); type: cell-based; settings: read-out: EGFR V3, potency code (IC50)
# T2 construct: expressed in transfected cells; host or cells: BaF3 (murine pro-B), retroviral pMXs-IRES-Blasticidin
# HER2 WT [4] = molecular target: T3, HER2 WT (Homo sapiens, UniProt P04626); test: Activity for inhibiting HER2 (Table B), HER2 WT; type: cell-based
# T3 sequence (P04626 23-1255): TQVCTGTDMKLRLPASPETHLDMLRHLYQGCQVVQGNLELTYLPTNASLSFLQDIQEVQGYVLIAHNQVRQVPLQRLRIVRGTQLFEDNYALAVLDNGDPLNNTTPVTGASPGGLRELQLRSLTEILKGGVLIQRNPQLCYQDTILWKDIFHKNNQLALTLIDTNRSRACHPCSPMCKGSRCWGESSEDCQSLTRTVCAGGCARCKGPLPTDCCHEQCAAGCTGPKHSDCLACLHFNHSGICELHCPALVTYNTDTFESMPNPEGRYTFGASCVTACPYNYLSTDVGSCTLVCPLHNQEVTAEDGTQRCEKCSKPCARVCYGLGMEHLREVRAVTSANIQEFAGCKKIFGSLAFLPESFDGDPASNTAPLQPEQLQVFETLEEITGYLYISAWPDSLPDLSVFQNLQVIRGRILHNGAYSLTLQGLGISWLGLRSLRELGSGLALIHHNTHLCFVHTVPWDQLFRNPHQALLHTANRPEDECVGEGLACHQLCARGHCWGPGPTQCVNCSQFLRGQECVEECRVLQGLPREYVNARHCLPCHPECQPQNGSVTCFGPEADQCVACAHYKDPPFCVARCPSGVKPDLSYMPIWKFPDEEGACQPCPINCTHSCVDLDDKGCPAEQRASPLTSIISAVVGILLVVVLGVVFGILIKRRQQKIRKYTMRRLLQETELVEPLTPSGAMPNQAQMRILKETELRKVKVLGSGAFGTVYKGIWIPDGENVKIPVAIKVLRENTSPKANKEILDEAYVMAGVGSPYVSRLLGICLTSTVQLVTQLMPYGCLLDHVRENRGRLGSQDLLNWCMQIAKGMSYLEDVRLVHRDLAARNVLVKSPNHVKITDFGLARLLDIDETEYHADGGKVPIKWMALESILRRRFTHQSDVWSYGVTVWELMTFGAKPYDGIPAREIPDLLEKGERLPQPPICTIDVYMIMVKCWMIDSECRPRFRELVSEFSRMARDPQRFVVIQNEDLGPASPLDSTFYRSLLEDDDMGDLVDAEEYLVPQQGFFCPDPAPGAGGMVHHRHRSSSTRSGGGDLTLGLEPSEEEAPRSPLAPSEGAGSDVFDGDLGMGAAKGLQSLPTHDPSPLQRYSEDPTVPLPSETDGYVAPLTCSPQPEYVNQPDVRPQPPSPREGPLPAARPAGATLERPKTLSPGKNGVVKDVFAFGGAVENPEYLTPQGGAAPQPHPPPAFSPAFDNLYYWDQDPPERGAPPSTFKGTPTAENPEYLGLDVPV
# HER2 S310F [5] = molecular target: T4, HER2 S310F (Homo sapiens, UniProt P04626, S310F); test: Activity for inhibiting HER2 (Table B), HER2 S310F; type: cell-based; settings: read-out: HER2 S310F, potency code (IC50)
# T4 construct: expressed in transfected cells; host or cells: BaF3 (murine pro-B)
# T4 sequence (P04626 23-1255 S310F): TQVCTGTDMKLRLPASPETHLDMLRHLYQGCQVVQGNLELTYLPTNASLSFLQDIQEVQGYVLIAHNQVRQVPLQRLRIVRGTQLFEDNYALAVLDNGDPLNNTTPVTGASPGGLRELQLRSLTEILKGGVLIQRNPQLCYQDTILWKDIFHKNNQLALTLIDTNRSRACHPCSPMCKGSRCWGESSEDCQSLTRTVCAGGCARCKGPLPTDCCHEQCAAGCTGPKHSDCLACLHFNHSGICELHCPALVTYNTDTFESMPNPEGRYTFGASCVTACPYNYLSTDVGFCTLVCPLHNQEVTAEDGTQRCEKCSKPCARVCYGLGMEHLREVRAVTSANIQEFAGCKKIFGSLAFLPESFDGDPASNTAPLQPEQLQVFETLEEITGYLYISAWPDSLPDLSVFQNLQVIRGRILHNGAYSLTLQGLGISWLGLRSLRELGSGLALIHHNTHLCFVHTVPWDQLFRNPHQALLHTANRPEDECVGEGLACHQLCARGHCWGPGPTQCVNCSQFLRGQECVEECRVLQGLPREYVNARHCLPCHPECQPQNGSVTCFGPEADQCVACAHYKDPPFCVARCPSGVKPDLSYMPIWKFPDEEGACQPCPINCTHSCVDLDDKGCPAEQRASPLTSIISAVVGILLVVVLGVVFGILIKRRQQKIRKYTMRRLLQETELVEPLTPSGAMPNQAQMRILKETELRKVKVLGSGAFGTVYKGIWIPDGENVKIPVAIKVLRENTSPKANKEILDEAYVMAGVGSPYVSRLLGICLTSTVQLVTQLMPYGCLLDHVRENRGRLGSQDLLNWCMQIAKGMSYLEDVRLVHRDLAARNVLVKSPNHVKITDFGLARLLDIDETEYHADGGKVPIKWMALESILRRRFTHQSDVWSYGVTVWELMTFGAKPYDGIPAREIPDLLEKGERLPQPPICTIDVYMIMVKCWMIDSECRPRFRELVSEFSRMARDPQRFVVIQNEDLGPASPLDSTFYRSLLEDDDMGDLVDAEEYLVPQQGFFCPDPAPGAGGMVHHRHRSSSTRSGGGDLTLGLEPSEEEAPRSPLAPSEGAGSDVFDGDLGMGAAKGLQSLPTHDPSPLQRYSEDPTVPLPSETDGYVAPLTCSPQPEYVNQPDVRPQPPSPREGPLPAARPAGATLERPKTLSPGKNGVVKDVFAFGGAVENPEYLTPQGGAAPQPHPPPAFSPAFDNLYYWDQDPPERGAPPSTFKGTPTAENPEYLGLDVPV
# Protocol: (§1) EC50 values were determined with the same application.
# HER2 YVMA [6] = molecular target: T5, HER2 YVMA (Homo sapiens, UniProt P04626, INS775YVMA); test: Activity for inhibiting HER2 (Table B), HER2 YVMA; type: cell-based; settings: read-out: HER2 YVMA, potency code (IC50)
# T5 construct: expressed in transfected cells; host or cells: BaF3 (murine pro-B)
# T5 sequence (P04626 with tags, fused parts or gaps INS775YVMA): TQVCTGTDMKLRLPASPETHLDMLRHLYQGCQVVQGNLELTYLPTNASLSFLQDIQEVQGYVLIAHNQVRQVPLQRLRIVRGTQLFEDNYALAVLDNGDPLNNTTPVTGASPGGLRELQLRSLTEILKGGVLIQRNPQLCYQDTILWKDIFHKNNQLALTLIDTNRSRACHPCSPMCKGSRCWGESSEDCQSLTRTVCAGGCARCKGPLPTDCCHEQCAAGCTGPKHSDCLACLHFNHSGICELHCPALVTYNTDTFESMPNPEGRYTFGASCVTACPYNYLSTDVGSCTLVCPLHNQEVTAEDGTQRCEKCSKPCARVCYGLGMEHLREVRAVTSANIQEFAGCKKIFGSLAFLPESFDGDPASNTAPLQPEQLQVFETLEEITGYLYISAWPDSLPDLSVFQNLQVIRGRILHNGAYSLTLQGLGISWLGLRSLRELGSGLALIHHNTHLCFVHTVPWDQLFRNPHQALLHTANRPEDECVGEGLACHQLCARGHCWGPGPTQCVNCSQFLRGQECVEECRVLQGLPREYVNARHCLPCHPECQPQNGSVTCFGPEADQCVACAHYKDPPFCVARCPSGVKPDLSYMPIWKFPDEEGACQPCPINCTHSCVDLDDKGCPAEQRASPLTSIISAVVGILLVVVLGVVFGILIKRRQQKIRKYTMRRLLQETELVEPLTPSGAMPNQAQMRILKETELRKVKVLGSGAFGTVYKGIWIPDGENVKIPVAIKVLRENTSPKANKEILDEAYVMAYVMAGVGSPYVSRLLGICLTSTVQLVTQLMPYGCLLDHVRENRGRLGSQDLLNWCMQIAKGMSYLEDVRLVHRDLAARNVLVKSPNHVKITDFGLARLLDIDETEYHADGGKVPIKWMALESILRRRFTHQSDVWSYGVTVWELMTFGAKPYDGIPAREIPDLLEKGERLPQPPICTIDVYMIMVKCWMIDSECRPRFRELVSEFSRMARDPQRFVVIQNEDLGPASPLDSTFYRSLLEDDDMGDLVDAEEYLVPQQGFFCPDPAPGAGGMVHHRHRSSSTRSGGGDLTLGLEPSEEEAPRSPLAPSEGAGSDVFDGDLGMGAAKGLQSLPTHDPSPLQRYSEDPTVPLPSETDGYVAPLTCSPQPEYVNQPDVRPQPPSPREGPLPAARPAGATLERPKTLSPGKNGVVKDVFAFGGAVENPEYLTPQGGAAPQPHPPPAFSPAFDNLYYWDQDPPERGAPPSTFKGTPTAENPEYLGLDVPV
# Protocol: as §1
# EGFR WT [7] = molecular target: T1, EGFR WT; test: BaF3 cell proliferation assay, EGFR WT (Table A); type: cell-based; settings: potency code, 3 days, CellTiterGlo, read-out: EGFR WT (Activity for Inhibiting EGFR)
# In short: (§2)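 EC50 values come from proliferation of IL-3-independent BaF3 lines. These lines were made by two spin infections with retrovirus encoding each mutant, plus polybrene (8 μg/ml). They then underwent one week of 10 μg/ml blasticidin selection and were removed from IL-3.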
# EGFR V3 [8] = molecular target: T2, EGFR V3; test: BaF3 cell proliferation assay, EGFR V3 (Table A); type: cell-based; settings: potency code, 3 days, CellTiterGlo, read-out: EGFR V3 (Activity for Inhibiting EGFR)
# In short: as §2
# HER2 WT [9] = molecular target: T3, HER2 WT; test: BaF3 cell proliferation assay, HER2 WT (Table B); type: cell-based; settings: potency code, 3 days, CellTiterGlo, read-out: HER2 WT (Activity for Inhibiting HER2)
# HER2 S310F [10] = molecular target: T4, HER2 S310F; test: BaF3 cell proliferation assay, HER2 S310F (Table B); type: cell-based; settings: potency code, 3 days, CellTiterGlo, read-out: HER2 S310F (Activity for Inhibiting HER2)
# HER2 YVMA [11] = molecular target: T5, HER2 YVMA; test: BaF3 cell proliferation assay, HER2 YVMA (Table B); type: cell-based; settings: potency code, 3 days, CellTiterGlo, read-out: HER2 YVMA (Activity for Inhibiting HER2)
# HER2 S310F [12] = test: Tumor pHER2/pERK AlphaLisa in mice bearing HER2 S310F BaF3 tumors (Examples 15-18); type: in vivo; settings: two day acute oral dosing, 15 mg/kg; at peak plasma levels
# Protocol: (§3) Following the second dose, tumors were collected at 2 hours, 5 hours, 12 hours and 24 hours, and analyzed for both pHER2 activity and pERK activity via AlphaLisa. Plasma was also collected at these time points and analayzed for the presence of Compound No. 21 to determine pharmacokinetic profile. The tumor tissue was cut and homogenized using the Precellys Soft Tissue Homogenizing kit (KT03961-1-00.3.2) containing T-PER tissue protein extraction reagent (Thermo Scientific #78510), supplemented with Protease Inhibitor (Sigma P8340), and Phosphatase Inhibitors II and III (Sigma P5726 and P0044). Tissue samples were homogenized in the Precellys machine by spinning two times for one minute each. Sample tubes were centrifuged for 5 min at 15,000 rpm at 4° C. The supernatant was transferred to a fresh microtube and spun again for 5 minutes at 15,000 rpm at 4° C. Supernatant was then transferred to a fresh microtube and placed on ice. The protein concentration of the supernatant was measured using the BCA reagent Kit (Thermo Scientific #23225). Tumor tissue-derived lysates were analyzed for either HER2 activity or EGFR activity by detection of pHER2 (Tyr1221/1222) or pERK (Thr202/Tyr204) phosphosites, respectively, via AlphaLisa. Briefly, tumor Lysates were diluted to 0.5 ug/ul in 1× diluted SureFire Ultra Kit Lysis Buffer (5× supplied stock) supplemented with Protease Inhibitor (Sigma P8340) and Phosphatase Inhibitor II and III (Sigma P5726 and P0044). 10 ul of total tumor lysate was added per well in triplicate to a 384-well Opti-plate (Perkin Elmer #6007290). Activation Buffer was diluted 25-fold in combined Reaction Buffer 1 and Reaction Buffer 2, and acceptor beads were diluted 50-fold in the combined Reaction Buffers. 5 ul/well of the Acceptor bead:Reaction buffer mixture was added to each well.
# as §3, with “No. 5” for “No. 21”, “Buffer (X” for “Buffer (5×”
# To determine the ability of Compound No. 118 to inhibit tumor growth and induce tumor regression in vivo, a mouse tumor model containing the HER2 S310F mutation was used. Athymic nude mice from Charles River Labs bearing HER2 S310F BaF3 tumors were treated with two day acute oral dosing of Compound No. 118 at 15 mg/kg. […]
# [13] = test system: cells expressing ErbB ectodomain variants
# GBM = settings: in combination with radiation and temozolomide; cited from earlier work
# EGFR NPH [14] = molecular target: T6, EGFR NPH (Homo sapiens, UniProt P00533, DUP771-773); test: Activity for inhibiting EGFR (Table A), EGFR NPH; type: cell-based; settings: read-out: EGFR NPH, potency code (IC50)
# T6 construct: expressed in transfected cells; host or cells: BaF3 (murine pro-B), retroviral pMXs-IRES-Blasticidin
# EGFR SVD [15] = molecular target: T7, EGFR SVD (Homo sapiens, UniProt P00533, DUP768-770); test: Activity for inhibiting EGFR (Table A), EGFR SVD; type: cell-based; settings: read-out: EGFR SVD, potency code (IC50)
# T7 construct: expressed in transfected cells; host or cells: BaF3 (murine pro-B), retroviral pMXs-IRES-Blasticidin
# EGFR NPH [16] = molecular target: T6, EGFR NPH; test: BaF3 cell proliferation assay, EGFR NPH (Table A); type: cell-based; settings: potency code, 3 days, CellTiterGlo, read-out: EGFR NPH (Activity for Inhibiting EGFR)
# In short: as §2
# EGFR SVD [17] = molecular target: T7, EGFR SVD; test: BaF3 cell proliferation assay, EGFR SVD (Table A); type: cell-based; settings: potency code, 3 days, CellTiterGlo, read-out: EGFR SVD (Activity for Inhibiting EGFR)
# In short: as §2
# [18] = Table B, read-out: HER2 WT, potency code (IC50)
# [19] = text lists of compounds, read-out: IC50 value for inhibiting wild-type HER2
IC50 (EGFR WT [2]) [nM],IC50 (EGFR V3 [3]) [nM],IC50 (HER2 WT [4]; [18]) [nM],IC50 (HER2 WT [4]; [19]) [nM],IC50 (HER2 S310F [5]) [nM],IC50 (HER2 YVMA [6]) [nM],IC50 (EGFR WT [7]) [nM],IC50 (EGFR V3 [8]) [nM],IC50 (HER2 WT [9]) [nM],IC50 (HER2 S310F [10]) [nM],IC50 (HER2 YVMA [11]) [nM],IC50 (EGFR NPH [14]) [nM],IC50 (EGFR SVD [15]) [nM],IC50 (EGFR NPH [16]) [nM],IC50 (EGFR SVD [17]) [nM],Compound,Induced dimers [1],other results
,,,,,,,,,,,,,,,C=CC(=O)Nc1cccc(Oc2nc(Nc3ccc(N4CCN(C)CC4)cc3)ncc2Cl)c1 [WZ3146],Yes,
,,,,,,,,,,,,,,,C=CC(=O)Nc1cccc(Oc2nc(Nc3ccc(N4CCN(C)CC4)cc3OC)ncc2Cl)c1 [WZ4002],Yes,
,,,,,,,,,,,,,,,C=CC(=O)Nc1cccc(Nc2nc(Nc3ccc(N4CCN(C(C)=O)CC4)cc3OC)ncc2C(F)(F)F)c1 [CO-1686],Yes,
300 to 500,30 to 50,10 to 20,≤ 20,20 to 30,30 to 50,300 to 500,30 to 50,10 to 20,20 to 30,30 to 50,,,,,C=CC(=O)Nc1cc2c(Nc3ccc(OCc4cccc(F)c4)c(Cl)c3)ncnc2cc1OCCN1CCOCC1 [compound 27],,pERK1/2 (Thr202/Tyr204) in tumors (HER2 S310F [12]): reduction; pHER2 (Tyr1221/1222) in tumors (HER2 S310F [12]): reduction
200 to 300,20 to 30,,,10 to 20,20 to 30,200 to 300,20 to 30,,10 to 20,20 to 30,,,,,C=CC(=O)Nc1cc2c(Nc3ccc(OCc4ccccn4)c(Cl)c3)ncnc2cc1OCCCN1CC(OC)C1 [compound 118],,pERK1/2 (Thr202/Tyr204) in tumors (HER2 S310F [12]): reduction; pHER2 (Tyr1221/1222) in tumors (HER2 S310F [12]): reduction
,,,,,,,,,,,,,,,"CCOc1cc2ncc(C#N)c(Nc3ccc(OCc4ccccn4)c(Cl)c3)c2cc1NC(=O)/C=C/CN(C)C [Neratinib, neratinib]",,paradoxical activation [13]: devoid of paradoxical activation
,,,,,,,,,,,,,,,C=CC(=O)Nc1cccc(Sc2nc(Nc3ccc(N4CCN(C)CC4)cc3)ncc2Cl)c1 [WZ8040],Yes,
,,,,,,,,,,,,,,,"C#Cc1cccc(Nc2ncnc3cc(OCCOC)c(OCCOC)cc23)c1 [Erlotinib, erlotinib]",,median OS (mOS) (GBM): 8.6 months; median PFS (mPFS) (GBM): 2.8 months
300 to 500,20 to 30,< 5,≤ 5,10 to 20,30 to 50,300 to 500,20 to 30,< 5,10 to 20,30 to 50,50 to 100,20 to 30,50 to 100,20 to 30,C=CC(=O)Nc1cc2c(Nc3ccc(OCc4ccccn4)c(Cl)c3)ncnc2cc1OCCN1CC(OC)C1 [compound 35],,
> 1000,30 to 50,10 to 20,≤ 20,20 to 30,30 to 50,> 1000,30 to 50,10 to 20,20 to 30,30 to 50,50 to 100,50 to 100,50 to 100,50 to 100,C=CC(=O)Nc1cc2c(Nc3ccc(OCc4ccccn4)c(Cl)c3)ncnc2cc1OCCN1CC2CCC(C1)O2 [compound 36],,
500 to 1000,10 to 20,5 to 10,≤ 10,10 to 20,50 to 100,500 to 1000,10 to 20,5 to 10,10 to 20,50 to 100,50 to 100,30 to 50,50 to 100,30 to 50,C=CC(=O)Nc1cc2c(Nc3cc(Cl)c(OCc4ccccn4)cc3F)ncnc2cc1OCCN1CCOCC1 [compound 57],,
,,,,,,,,,,,,,,,"CCOc1cc2ncc(C#N)c(Nc3ccc(F)c(Cl)c3)c2cc1NC(=O)/C=C/CN(C)C [Pelitinib, pelitinib]",Yes,
500 to 1000,20 to 30,50 to 100,,10 to 20,50 to 100,500 to 1000,20 to 30,50 to 100,10 to 20,50 to 100,100 to 200,50 to 100,100 to 200,50 to 100,C=CC(=O)Nc1cc2c(Nc3ccc(OCc4ccccn4)c(Cl)c3)ncnc2cc1C#CC(C)(C)N(C)C [compound 66],,
500 to 1000,50 to 100,30 to 50,≤ 50,50 to 100,500 to 1000,500 to 1000,50 to 100,30 to 50,50 to 100,500 to 1000,> 1000,500 to 1000,> 1000,500 to 1000,C=CC(=O)Nc1cc2c(Nc3ccc(OCc4ccccn4)c(Cl)c3)ncnc2cc1N1CCN(C)CC1 [compound 42],,
300 to 500,10 to 20,< 5,≤ 5,5 to 10,30 to 50,300 to 500,10 to 20,< 5,5 to 10,30 to 50,30 to 50,20 to 30,30 to 50,20 to 30,C=CC(=O)Nc1cc2c(Nc3ccc(OCc4ccccn4)c(Cl)c3)ncnc2cc1OC1CC(N(C)C)C1 (stereo not drawn) [compound 62],,
